In patent US20240124465A1, “MOLECULES AND METHODS RELATED TO TREATMENT OF DISORDERS ASSOCIATED WITH JAK-2 SIGNALING DYSFUNCTION” (ST. JUDE CHILDREN'S RESEARCH HOSPITAL, priority 2020, published 2024):

Key:
Type in all cases: cell-based
MHH-CALL-4 cells = test: Cytotoxicity assay (resazurin, 72 hours); set-up: AUC: unit not given beside the values; conditions: for EC50: MHHCALL4, resazurin; for AUC: area under the dose-response curve
Outline: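 Cells grown in RPMI1640 with 10% FBS, 2×10⁵ per well, were exposed to pin-transferred compounds in triplicate for 72 h at 37 °C, 5% CO2. Viability was read after 4 h resazurin incubation. Dose-response AUC was calculated per compound; selected data were fitted by non-linear regression.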

JAK1 = target: T1, JAK1 (Homo sapiens, UniProt P23458); test: Western blot assay, JAK1 protein degradation; conditions: MHH-CALL-4 cells, vehicle control = 100%
T1 construct: endogenous in cells; host or cells: MHH-CALL-4
Outline: (§1)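 MHH-CALL-4 cells lysed in RIPA with protease inhibitors; 10-20 μg total protein per lane run on 4%-12% Bis-Tris gels and immunoblotted with fluorescence imaging. Target signal normalized to ACBT and expressed relative to vehicle control set at 100%.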

JAK2 = test: Western blot assay, JAK2 protein degradation; conditions: MHH-CALL-4 cells, vehicle control = 100%
Outline: as §1

JAK3 = target: T2, JAK3 (Homo sapiens, UniProt P52333); test: Western blot assay, JAK3 protein degradation; conditions: MHHCALL4; 100 nM, 24 h; MHH-CALL-4 cells; vehicle control = 100%; read-out: Target Protein Degradation (% remaining at 100 nM, 24 h) JAK3
T2 construct: endogenous in cells; host or cells: MHH-CALL-4
T2 sequence (P52333 1-1124): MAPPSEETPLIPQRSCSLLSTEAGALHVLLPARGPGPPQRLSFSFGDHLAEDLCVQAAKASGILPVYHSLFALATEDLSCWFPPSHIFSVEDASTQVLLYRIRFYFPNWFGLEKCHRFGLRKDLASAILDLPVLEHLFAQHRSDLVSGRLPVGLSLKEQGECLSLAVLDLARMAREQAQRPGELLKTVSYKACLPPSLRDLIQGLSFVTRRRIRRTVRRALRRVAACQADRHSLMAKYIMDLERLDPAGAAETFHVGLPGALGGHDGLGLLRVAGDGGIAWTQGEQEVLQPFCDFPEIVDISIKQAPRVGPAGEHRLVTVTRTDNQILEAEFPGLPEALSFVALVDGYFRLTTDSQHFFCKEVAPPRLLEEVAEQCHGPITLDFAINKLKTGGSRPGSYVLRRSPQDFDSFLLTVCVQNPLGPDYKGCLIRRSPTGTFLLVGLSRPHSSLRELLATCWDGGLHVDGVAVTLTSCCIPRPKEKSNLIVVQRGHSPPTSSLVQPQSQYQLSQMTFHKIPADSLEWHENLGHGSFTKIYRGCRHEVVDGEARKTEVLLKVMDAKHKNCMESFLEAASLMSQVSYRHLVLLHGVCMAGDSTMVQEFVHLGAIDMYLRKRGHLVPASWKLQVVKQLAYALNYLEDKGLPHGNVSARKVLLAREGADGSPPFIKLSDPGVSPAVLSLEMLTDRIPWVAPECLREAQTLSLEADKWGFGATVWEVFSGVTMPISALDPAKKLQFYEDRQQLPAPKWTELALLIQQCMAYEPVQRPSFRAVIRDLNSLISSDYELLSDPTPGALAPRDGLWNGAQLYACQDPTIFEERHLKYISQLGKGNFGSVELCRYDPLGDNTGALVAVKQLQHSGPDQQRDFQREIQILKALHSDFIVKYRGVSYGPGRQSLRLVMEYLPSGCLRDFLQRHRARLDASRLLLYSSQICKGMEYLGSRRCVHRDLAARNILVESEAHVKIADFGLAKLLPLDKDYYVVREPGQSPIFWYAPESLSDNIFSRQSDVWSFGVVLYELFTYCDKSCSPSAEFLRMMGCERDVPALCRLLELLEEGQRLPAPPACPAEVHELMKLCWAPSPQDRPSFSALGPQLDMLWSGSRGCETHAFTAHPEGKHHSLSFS
Outline: as §1

TYK2 = target: T3, TYK2 (Homo sapiens, UniProt P29597); test: Western blot assay, TYK2 protein degradation; conditions: MHH-CALL-4 cells, vehicle control = 100%
T3 construct: endogenous in cells; host or cells: MHH-CALL-4
Protocol: (§2) Western blot assay: MHH-CALL-4 Cells were washed twice with ice-cold PBS and lysed in RIPA lysis buffer (Sigma) freshly supplemented with Halt™ Protease Inhibitor Cocktail (ThermoFisher) for 15 minutes on ice. The cell pellet was removed by centrifugation at 13,000 g at 4° C. for 15 minutes. Protein concentration was measured by BCA assay (Thermo Fisher Scientific). Proteins were denatured in NuPAGE LDS 4× sample buffer supplemented with reducing agents (Invitrogen). Typically, 10-20 μg of total protein was loaded per lane on a 4%-12% NUPAGE Bis-Tris gradient gel (Invitrogen) and analyzed by standard immunoblotting and imaged using Li—COR Odyssey CLx (LI-COR Biotechnology, Lincoln, NE). To access the protein degradation, the signal of target protein was normalized by the signal of ACBT and the signal of vehicle control was set as 100%. Primary antibodies used were: JAK1 (Cell Signaling #3332S), JAK2 (#3230S), JAK3 (#8827S), TYK2 (#9312S), GSPT1 (#14980S), CRBN (#71810S), IKZF1 (Santa Cruz Biotechnology, SC-398265) and ACBT (Santa Cruz Biotechnology, SC-47778).

GSPT1 = target: T4, GSPT1 (Homo sapiens, UniProt P15170); test: Western blot assay, GSPT1 neosubstrate degradation; conditions: MHHCALL4; 100 nM, 24 h; MHH-CALL-4 cells; vehicle control = 100%
T4 construct: endogenous in cells; host or cells: MHH-CALL-4
Outline: as §1

IKZF1 = target: T5, IKZF1 (Homo sapiens, UniProt Q13422); test: Western blot assay, IKZF1 neosubstrate degradation; conditions: MHH-CALL-4 cells, vehicle control = 100%
T5 construct: endogenous in cells; host or cells: MHH-CALL-4
Protocol: as §2

T1 sequence (P23458 whole entry): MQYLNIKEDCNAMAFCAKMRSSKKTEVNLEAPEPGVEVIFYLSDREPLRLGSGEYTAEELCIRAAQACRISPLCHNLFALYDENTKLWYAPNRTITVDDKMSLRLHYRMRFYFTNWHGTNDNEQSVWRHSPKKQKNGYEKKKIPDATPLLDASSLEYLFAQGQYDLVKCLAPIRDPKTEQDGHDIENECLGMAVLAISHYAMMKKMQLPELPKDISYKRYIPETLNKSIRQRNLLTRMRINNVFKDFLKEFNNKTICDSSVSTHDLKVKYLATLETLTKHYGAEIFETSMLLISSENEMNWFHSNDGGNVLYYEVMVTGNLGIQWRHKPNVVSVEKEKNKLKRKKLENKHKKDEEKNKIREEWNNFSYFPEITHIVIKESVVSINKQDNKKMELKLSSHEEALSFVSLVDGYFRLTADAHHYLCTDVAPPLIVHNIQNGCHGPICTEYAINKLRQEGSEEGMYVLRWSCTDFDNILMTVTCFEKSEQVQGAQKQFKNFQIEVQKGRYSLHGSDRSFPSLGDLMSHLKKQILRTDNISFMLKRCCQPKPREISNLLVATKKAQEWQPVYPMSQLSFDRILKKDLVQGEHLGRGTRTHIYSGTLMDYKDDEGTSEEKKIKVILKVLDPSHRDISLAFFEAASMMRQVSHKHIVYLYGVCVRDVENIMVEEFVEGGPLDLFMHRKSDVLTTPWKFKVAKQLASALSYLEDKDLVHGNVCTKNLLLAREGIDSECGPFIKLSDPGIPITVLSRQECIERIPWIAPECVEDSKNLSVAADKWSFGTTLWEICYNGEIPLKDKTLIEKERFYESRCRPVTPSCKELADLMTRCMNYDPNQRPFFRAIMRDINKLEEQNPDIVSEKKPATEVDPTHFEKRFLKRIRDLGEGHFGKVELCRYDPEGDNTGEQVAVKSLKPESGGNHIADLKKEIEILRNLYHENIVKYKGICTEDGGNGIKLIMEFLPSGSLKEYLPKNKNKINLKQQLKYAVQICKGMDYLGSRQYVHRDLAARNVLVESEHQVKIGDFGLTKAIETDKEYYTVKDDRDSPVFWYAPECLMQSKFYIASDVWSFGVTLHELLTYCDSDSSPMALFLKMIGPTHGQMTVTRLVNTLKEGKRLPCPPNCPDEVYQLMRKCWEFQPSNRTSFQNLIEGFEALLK
T4 sequence (P15170 whole entry): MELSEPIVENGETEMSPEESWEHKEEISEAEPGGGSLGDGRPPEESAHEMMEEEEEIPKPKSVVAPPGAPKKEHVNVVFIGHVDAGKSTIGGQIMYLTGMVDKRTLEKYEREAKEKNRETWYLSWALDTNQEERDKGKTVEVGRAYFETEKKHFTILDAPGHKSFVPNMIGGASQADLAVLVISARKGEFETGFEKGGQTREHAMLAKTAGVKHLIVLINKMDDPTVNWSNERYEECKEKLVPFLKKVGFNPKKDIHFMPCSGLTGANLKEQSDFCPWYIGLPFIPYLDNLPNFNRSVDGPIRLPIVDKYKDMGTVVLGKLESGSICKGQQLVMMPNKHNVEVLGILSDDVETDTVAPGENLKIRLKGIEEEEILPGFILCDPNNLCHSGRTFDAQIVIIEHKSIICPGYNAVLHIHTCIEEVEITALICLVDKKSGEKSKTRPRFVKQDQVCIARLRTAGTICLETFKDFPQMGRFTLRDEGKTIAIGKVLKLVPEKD
T5 sequence (Q13422 whole entry): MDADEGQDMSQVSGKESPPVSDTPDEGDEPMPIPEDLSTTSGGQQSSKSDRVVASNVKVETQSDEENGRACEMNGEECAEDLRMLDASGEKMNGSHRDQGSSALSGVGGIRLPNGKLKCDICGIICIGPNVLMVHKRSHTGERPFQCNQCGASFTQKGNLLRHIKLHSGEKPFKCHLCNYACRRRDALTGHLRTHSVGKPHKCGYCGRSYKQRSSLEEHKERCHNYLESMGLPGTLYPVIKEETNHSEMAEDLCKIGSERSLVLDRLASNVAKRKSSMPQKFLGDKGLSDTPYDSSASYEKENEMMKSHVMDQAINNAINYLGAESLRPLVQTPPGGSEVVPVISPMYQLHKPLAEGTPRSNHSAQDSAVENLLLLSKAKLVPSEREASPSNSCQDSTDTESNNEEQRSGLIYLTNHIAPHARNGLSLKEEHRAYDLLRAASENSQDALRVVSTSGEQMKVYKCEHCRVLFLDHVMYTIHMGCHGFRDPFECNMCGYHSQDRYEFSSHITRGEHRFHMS
T3 sequence (P29597 whole entry): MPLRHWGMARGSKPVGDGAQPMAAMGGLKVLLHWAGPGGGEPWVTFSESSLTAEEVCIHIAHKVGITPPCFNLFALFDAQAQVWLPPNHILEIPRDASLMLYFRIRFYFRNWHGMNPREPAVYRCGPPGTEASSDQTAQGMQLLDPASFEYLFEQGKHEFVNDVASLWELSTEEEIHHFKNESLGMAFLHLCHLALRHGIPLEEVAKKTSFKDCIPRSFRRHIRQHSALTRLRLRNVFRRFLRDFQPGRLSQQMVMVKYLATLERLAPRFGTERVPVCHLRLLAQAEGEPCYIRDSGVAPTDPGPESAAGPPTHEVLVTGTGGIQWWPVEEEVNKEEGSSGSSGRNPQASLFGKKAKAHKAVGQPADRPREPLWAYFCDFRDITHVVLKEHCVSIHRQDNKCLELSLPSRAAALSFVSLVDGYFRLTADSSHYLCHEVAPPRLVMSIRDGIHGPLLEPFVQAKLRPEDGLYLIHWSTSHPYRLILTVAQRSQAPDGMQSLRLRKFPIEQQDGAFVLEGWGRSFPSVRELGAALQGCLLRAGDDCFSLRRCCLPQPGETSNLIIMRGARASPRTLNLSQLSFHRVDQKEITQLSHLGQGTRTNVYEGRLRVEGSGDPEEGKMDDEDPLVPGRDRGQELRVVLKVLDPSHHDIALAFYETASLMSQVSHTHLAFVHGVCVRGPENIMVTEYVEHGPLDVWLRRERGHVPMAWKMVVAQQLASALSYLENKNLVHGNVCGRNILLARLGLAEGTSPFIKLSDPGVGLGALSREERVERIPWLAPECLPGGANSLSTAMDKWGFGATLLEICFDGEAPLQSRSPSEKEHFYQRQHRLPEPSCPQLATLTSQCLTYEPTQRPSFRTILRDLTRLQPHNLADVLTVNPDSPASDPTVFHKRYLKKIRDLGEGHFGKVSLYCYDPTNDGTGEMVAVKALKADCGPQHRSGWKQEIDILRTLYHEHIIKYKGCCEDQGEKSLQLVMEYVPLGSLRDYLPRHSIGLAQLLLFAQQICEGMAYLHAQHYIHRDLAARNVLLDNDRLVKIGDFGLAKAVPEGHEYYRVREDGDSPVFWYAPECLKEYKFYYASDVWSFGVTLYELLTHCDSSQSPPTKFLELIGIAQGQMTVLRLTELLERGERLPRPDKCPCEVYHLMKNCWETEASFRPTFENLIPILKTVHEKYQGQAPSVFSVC

Target Protein Degradation (% remaining at 100 nM, 24 h) JAK1 (JAK1) [% remaining] | remaining activity at 0.1 µM (JAK3) [%] | Target Protein Degradation (% remaining at 100 nM, 24 h) TYK2 (TYK2) [% remaining] | remaining activity at 0.1 µM (GSPT1) [%] | Neosubstrate Degradation (% remaining at 100 nM, 24 h) IKZF1 (IKZF1) [% remaining] | SMILES | EC50 (MHH-CALL-4 cells) [nM] | AUC (MHH-CALL-4 cells) | Target Protein Degradation (% remaining at 100 nM, 24 h) JAK2 (JAK2) [% remaining]
86 | 46 | 118 | 109 | 87 | CCS(=O)(=O)N1CC(CC#N)(n2cc(-c3nc(Nc4ccc(C(=O)NCCCN5CCN(c6ccc(C7CCC(=O)NC7=O)cc6)CC5)cc4)nc4[nH]ccc34)cn2)C1 (centres unmarked) [Compound 10] | 2580 | 114 | 25
105 | 102 | 88 | 110 | 96 | CCS(=O)(=O)N1CC(CC#N)(n2cc(-c3nc(Nc4ccc(C(=O)NCCNC(=O)COc5ccc(C6CCC(=O)NC6=O)cc5)cc4)nc4[nH]ccc34)cn2)C1 (centres unmarked) [Compound 17] | > 784 |  | 120
83 | 80 | 122 | 117 | 105 | CCS(=O)(=O)N1CC(CC#N)(n2cc(-c3nc(Nc4ccc(C(=O)NCCCNC(=O)COc5ccc(C6CCC(=O)NC6=O)cc5)cc4)nc4[nH]ccc34)cn2)C1 (centres unmarked) [Compound 18] | > 812 | 95 | 82
